{
  "source": "patent US20230305022A1",
  "about": "“Biomarkers in Primary Biliary Cholangitis” (University of Newcastle upon Tyne, priority 2020, published 2023)",
  "test_system": "Ep-CAM",
  "experiment": "Discovery serum proteomics (Olink), UDCA-treated vs treatment-naïve PBC patients",
  "format": "in vivo, human",
  "conditions": "serum NPX, UDCA 13-15 mg/kg/day for >12 months (n=416) vs treatment-naïve (n=68)",
  "description": "UDCA-Treated PBC: These were PBC patients who had been taking UDCA at a therapeutic dose (13-15 mg/kg/day) for greater than 12 months. Clinical parameters, including serum biochemistry were available both pre-treatment and after 12 months of UDCA therapy. This allowed all UDCA-treated patients to be assigned to responder and non-responder groups using current standard criteria including Paris 1 (Alanine Transaminase (ALT)>2× upper limit of normal [ULN], Alkaline Phosphatase (ALP)>3×ULN, Bilirubin>1×ULN) (Corpechot et al., 2008), Paris 2 (ALP and ALT both >1.5×ULN)(Corpechot et al., 2011) and POISE (ALP <1.67×ULN and bilirubin <1×ULN) (Nevens et al., 2016). UK-PBC risk score 10-year predicted survival was also calculated for UDCA-treated patients after therapy. Patients taking fibrates and or OCA were not included in the current study. […]\nBlood was collected under the approval of the Human Tissue Authority (HTA) by the UK-PBC tissue Bioresource with written informed patient consent obtained in accordance with research and ethics committee (REC) approval (14/NW/1146). […] 4 μl serum was analysed for 368 analytes from 4 distinct panels including Cardiovascular II &Ill, Inflammation and Oncology II (https://www.olink.com/). […] In turn, this was amplified by microfluidic quantitative PCR with normalised protein expression (NPX) data generated by a ΔΔct calculation method. […]",
  "data": [
    {"compound": "C[C@H](CCC(=O)O)[C@H]1CC[C@H]2[C@@H]3[C@@H](O)C[C@@H]4C[C@H](O)CC[C@]4(C)[C@H]3CC[C@]12C", "note": "[UDCA, Ursodeoxycholic acid]", "values": [
      {"measurement": "log Fold Change of serum protein, UDCA Tx vs Naïve Tx", "result": "−0.84"}
    ]}
  ]
}
